Results published in PubChem BioAssay (NCI).
Values joined by “and” are separate entries in the source; they are usually repeats but may differ in a detail not shown here. Identical values can stand only once.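 Where inhibition never reached the appropriate level, the endpoint shown equals the highest concentration tested. Otherwise, values were interpolated linearly from a five-concentration, 48-hour dose response in 96-well plates. The concentration for 50% growth inhibition is given as GI50. TGI: concentration producing complete growth inhibition.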 Where a SMILES comes first, the peptide text is derived from it. [ ]: non-standard residue; d: D form. The star is where a group is joined. ξ: configuration not given here. X16 = COC1=CC(=O)N(C(=O)C(O*)C(C)C)C1Cc1ccccc1; ξNMe2Val = CC(C)C(C(=O)*)N(C)C; NMeV = CN[CH](C(=O)O)C(C)C

How the values were obtained:
Assay in all cases: NCI anticancer screen, dose series, 48 h
[1] = tested on: CCRF-CEM leukemia
[2] = tested on: HS 578T breast
[3] = tested on: IGROV1 ovarian
[4] = tested on: K-562 leukemia
[5] = tested on: KM12 colon
[6] = tested on: MCF7 breast
[7] = tested on: NCI-H460 lung
[8] = tested on: NCI/ADR-RES ovarian
[9] = tested on: OVCAR-3 ovarian
[10] = tested on: OVCAR-5 ovarian
[11] = tested on: LOX IMVI melanoma

Compound	TGI [1]	TGI [2]	TGI [3]	TGI [4]	TGI [5]	TGI [6]	TGI [7]	TGI [8]	TGI [9]	TGI [10]	TGI [11]	GI50 [1]	GI50 [3]	GI50 [4]	GI50 [5]	GI50 [11]	GI50 [7]	GI50 [9]	GI50 [10]	GI50 [6]
COc1c2cc(C(C)(C)C)cc1CSCc1cc(C(C)(C)C)cc(c1OC)CCCCC2	> 50 µM	> 50 µM	> 50 µM	> 50 µM	> 50 µM	> 50 µM	> 50 µM	> 50 µM	> 50 µM	> 50 µM										
CO/C(=N\N=C(/C)C(F)(F)F)c1ccncc1	> 100 µM	> 100 µM	> 100 µM	> 100 µM	> 100 µM	> 100 µM	> 100 µM	> 100 µM	> 100 µM	> 100 µM										
Oc1c(Cl)c2nccnc2c2ccccc12	> 100 µM		> 100 µM	> 100 µM	> 100 µM		> 100 µM		> 100 µM	> 100 µM										
On1c(-c2ccccc2)c(-c2c(-c3ccccc3)n(O)c3ccccc23)c2ccccc21	> 100 µM			> 100 µM	> 100 µM		49.4 µM		> 100 µM		73.2 µM									
O=S(=O)(O)c1cc(Cl)c(O)c2ncc(Cl)cc12	> 100 µM		> 100 µM	> 100 µM	> 100 µM	> 100 µM	> 100 µM	> 100 µM	> 100 µM	> 100 µM	> 100 µM									
c1cnc2c(c1)-n1cccc1C1(CCOCC1)NN2	> 100 µM		> 100 µM	> 100 µM	> 100 µM		> 100 µM		> 100 µM											
C=C1CC2CC[C@@]34C[C@@H]5O[C@@H]6C(O[C@H]7CC[C@H](CC(=O)OC8[C@@H](C)C9OC%10C[C@]%11(C[C@@H]%12O[C@@]%13(C[C@@H](C)[C@@H]%12O%11)C[C@H](C)[C@@H]%11OC%12CC(C(O)CO)OC%12C[C@@H]%11O%13)OC%10CC9O[C@H]8C[C@H]8O[C@@H](CC[C@@H]1O2)C[C@@H](C)C8=C)O[C@@H]7[C@@H]6O3)C5O4 (stereo not given in full)			> 1.48 µM	> 1.48 µM		> 1.48 µM	0.00317 µM and 0.028 µM	0.0304 µM	0.00108 µM and < 0.000148 µM	> 1.48 µM	0.394 µM	< 0.000148 µM	< 0.000148 µM	< 0.000148 µM	< 0.000148 µM	< 0.000148 µM	< 0.000148 µM	< 0.000148 µM	> 1.48 µM	
COc1ccc(-n2sc3ncc(-c4ccccc4)cc3c2=O)cc1	> 100 µM		78.8 µM		> 100 µM	> 100 µM	> 100 µM	> 100 µM	47.2 µM	74 µM	> 100 µM									
CC(C)(C)C1CCC2c3c([nH]c4ccccc34)C3C(=O)N(c4cc(Br)cc(Br)c4)C(=O)C3C2C1 (stereo not given)	25.1 µM	30.8 µM	> 100 µM		> 100 µM	17.5 µM	74.2 µM	40.8 µM		> 100 µM	> 100 µM									
COC(=O)[C@]1(C)CCCn2c(=O)n(-c3ccccc3)c(=O)n21	> 100 µM	> 100 µM	> 100 µM	> 100 µM	> 100 µM	> 100 µM		> 100 µM	> 100 µM	> 100 µM	> 100 µM									
O=C(NCCNCCO)N/N=C/c1cccc([N+](=O)[O-])c1	> 100 µM		> 100 µM	> 100 µM	> 100 µM		> 100 µM		> 100 µM	> 100 µM	> 100 µM									
O=[N+]([O-])/C(C(Cl)=C(Cl)Cl)=C1\Nc2ccccc2O1	38.7 µM	> 100 µM	> 100 µM	> 100 µM	> 100 µM	> 100 µM	> 100 µM		63.6 µM	> 100 µM	> 100 µM									
COc1ccc(NC(=S)NN=C(C)c2cccc(C(C)=NNC(=S)Nc3ccc(OC)cc3)n2)cc1	> 100 µM	> 100 µM	> 100 µM	> 100 µM	84.2 µM		> 100 µM	> 100 µM	> 100 µM	> 100 µM	> 100 µM									
C[N+]1(C)C2Cc3ccccc3C1Cc1ccccc12	> 100 µM	> 100 µM	> 100 µM		> 100 µM	> 100 µM	> 100 µM	> 100 µM	> 100 µM	> 100 µM	> 100 µM									
Cc1c(C)c(C)c(-n2c(=O)n(C)c(=O)n2C(C)(C)C)c(C)c1C	> 100 µM	> 100 µM		> 100 µM	> 100 µM	> 100 µM	> 100 µM		> 100 µM	> 100 µM	> 100 µM									
COc1ccc(C2SCC(=O)N2N=C2NC(=O)CC(=O)N2)cc1 (stereo not given)	> 100 µM	> 100 µM	> 100 µM	> 100 µM	> 100 µM	> 100 µM	> 100 µM	> 100 µM	> 100 µM	> 100 µM										
CCOC(=O)C(NCc1ccccc1)(NC(=O)c1ccccc1)C(F)(F)F (stereo not given)	89.9 µM	> 100 µM	> 100 µM	> 100 µM	> 100 µM	> 100 µM		> 100 µM	> 100 µM	> 100 µM	> 100 µM									
COc1c(C2(c3ccc(F)cc3)SCCCS2)c(=O)c1=O	> 100 µM	> 100 µM		> 100 µM	> 100 µM	> 100 µM	> 100 µM	> 100 µM	> 100 µM	> 100 µM	> 100 µM									
COC1=CC(=O)N(C(=O)C(OC(=O)C2CCCN2C(=O)C2CCCN2C(=O)C(C(C)C)N(C)C(=O)C(NC(=O)C(C(C)C)N(C)C)C(C)C)C(C)C)C1Cc1ccccc1 (stereo not given) (ξNMe2Val-V[NMeV]PP-X16; configuration not given here)	0.00744 µM	0.000903 µM	> 4 µM		> 4 µM	> 4 µM	0.519 µM	0.256 µM	0.00383 µM and < 0.0004 µM	> 4 µM	> 4 µM		< 0.0004 µM		< 0.0004 µM	< 0.0004 µM	< 0.0004 µM	< 0.0004 µM	> 4 µM	< 0.0004 µM
O=C(CCN1CCCCC1CCO)Nc1ccc2c(c1)C(=O)c1ccc(NC(=O)CCN3CCCCC3CCO)cc1C2=O (stereo not given)	> 100 µM		18.9 µM	> 100 µM	9.87 µM		20.4 µM		9.03 µM	61.2 µM	13.2 µM									
